Laboratory results reported in patent publication US8841312B2, “Fused pyridine, pyrimidine and triazine compounds as cell cycle inhibitors” (Amgen Inc., priority 2007, dated 2014).

target: Cdk4/CyclinD1 (Homo sapiens (Human), UniProt P11802); assay: Cdk4 kinase inhibition assay with recombinant Cdk4/CyclinD1, Rb substrate, [33P]-ATP filter plate; format: biochemical; settings: 25 μM ATP, read-out: Cdk 4 IC50
Experimental: The Cdk4 and Cdk6 inhibitory activity of the compounds is measured with a kinase inhibition assay using recombinant Cdk4/CyclinD1 or Cdk6/CyclinD3 protein complexes. The protein substrate used in the assay is the retinoblastoma protein (Rb). The kinase reactions are carried out in a 96-well filter plate (MSDV N6B50, Millipore). […] The mixture is incubated at room temperature for 1 hour and the proteins precipitated with an equal volume of 20% TCA. The plates are washed with 10% TCA according to the manufacturer's instruction and dried at room temperature. The amount of the phosphorylated Rb is determined with a TopCount (PerkinElmer). The IC50 of a compound is determined by nonlinear regression curve fitting using software program Prism 5 (GraphPad Software).

Cdk4/CyclinD1, sequence (P11802 whole entry): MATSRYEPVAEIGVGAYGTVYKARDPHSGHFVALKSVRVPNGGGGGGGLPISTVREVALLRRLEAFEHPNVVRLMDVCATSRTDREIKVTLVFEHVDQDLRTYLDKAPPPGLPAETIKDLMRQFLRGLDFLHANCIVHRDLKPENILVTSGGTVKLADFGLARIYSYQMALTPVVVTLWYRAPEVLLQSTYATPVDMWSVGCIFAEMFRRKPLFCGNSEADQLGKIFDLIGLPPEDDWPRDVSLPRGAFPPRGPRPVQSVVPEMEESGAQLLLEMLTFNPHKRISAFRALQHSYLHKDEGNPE
Cdk4/CyclinD1, sequence (P24385 whole entry partner): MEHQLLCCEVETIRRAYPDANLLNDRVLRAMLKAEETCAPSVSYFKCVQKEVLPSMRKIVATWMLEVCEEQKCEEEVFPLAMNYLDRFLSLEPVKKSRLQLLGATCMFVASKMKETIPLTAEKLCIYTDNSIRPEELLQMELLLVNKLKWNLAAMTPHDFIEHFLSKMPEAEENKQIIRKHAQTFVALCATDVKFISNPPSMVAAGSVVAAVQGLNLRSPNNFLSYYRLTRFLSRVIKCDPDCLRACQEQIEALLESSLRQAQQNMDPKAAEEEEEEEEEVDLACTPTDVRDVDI

In order of rising IC50:
1. C[C@H]1CN(c2ccc(Nc3ncc4c5ccncc5n(C5CCCC5)c4n3)nc2)CCN1 [Example 62]  0.002 µM
2. CC1(C)CN(c2ccc(Nc3ncc4c5ccncc5n(C5CCCC5)c4n3)nn2)CCN1 [Example 10]  0.0022 µM
3. CC1CN(c2ccc(Nc3ncc4c5ccncc5n(C5CCCC5)c4n3)nc2)CC(C)N1 (stereo not drawn) [Example 72]  0.0023 µM
4. OCCN1CCN(c2ccc(Nc3ncc4c5ccnc(F)c5n(C5CCCC5)c4n3)nc2)CC1 [Example 170, 2-(4-(6-((9-Cyclopentyl-8-fluoro-9H-pyrido[4′,3′:4,5]pyrrolo[2,3-d]pyrimidin-2-yl)amino)-3-pyridinyl)-1-piperazinyl)ethanol]  0.0025 µM
5. CCN(CC)C1CCN(c2ccc(Nc3ncc4c5ccnc(O)c5n(C5CCCC5)c4n3)nn2)CC1 [Example 282, 9-cyclopentyl-2-((6-(4-(diethylamino)-1-piperidinyl)-3-pyridazinyl)amino)-9H-pyrido[4′,3′:4,5]pyrrolo[2,3-d]pyrimidin-8-ol]  0.0028 µM
6. CC(C)n1c2cnccc2c2cnc(Nc3ccc(N4CCNCC4)cn3)nc21 [Example 159, 9-(1-methylethyl)-N-(5-(1-piperazinyl)-2-pyridinyl)-9H-pyrido[4′,3′:4,5]pyrrolo[2,3-d]pyrimidin-2-amine]  0.003 µM
7. c1cc2c3cnc(Nc4ccc(NCC5CCNC5)cn4)nc3n(C3CCCC3)c2cn1 (stereo not drawn) [Example 70]  0.0036 µM
8. NCC1CCN(c2ccc(Nc3ncc4c5ccncc5n(C5CCCC5)c4n3)nc2)CC1 [Example 60, 4-Aminomethyl-1-(6-((9-cyclopentyl-9H-pyrido[4′,3′:4,5]pyrrolo[2,3-d]pyrimidin-2-yl)amino)-3-pyridinyl)-piperidine]  0.004 µM
9. Cc1nc(Nc2ncc3c4ccnc(Cl)c4n(C4CCCC4)c3n2)ccc1N1CCNCC1 [Example 155, 8-Chloro-9-cyclopentyl-N-(6-methyl-5-(1-piperazinyl)-2-pyridinyl)-9H-pyrido[4′,3′:4,5]pyrrolo[2,3-d]pyrimidin-2-amine]  0.0041 µM
10. OC[C@H]1CN(c2ccc(Nc3ncc4c5ccncc5n(C5CCCC5)c4n3)nc2)CCN1 [Example 197, ((2R)-4-(6-((9-Cyclopentyl-9H-pyrido[4′,3′:4,5]pyrrolo[2,3-d]pyrimidin-2-yl)amino)-3-pyridinyl)-2-piperazinyl)methanol]  0.0042 µM
11. c1cc2c3cnc(Nc4ccc(N5CCC6(CC5)COCCN6)nn4)nc3n(C3CCCC3)c2cn1 [Example 249, 9-cyclopentyl-N-(6-(4-oxa-1,9-diazaspiro[5.5]undec-9-yl)-3-pyridazinyl)-9H-pyrido[4′,3″:4,5]pyrrolo[2,3-d]pyrimidin-2-amine]  0.0044 µM
12. OCCN1CCN(c2ccc(Nc3ncc4c5ccncc5n(C5CCCC5)c4n3)nc2)CC1 [Example 191, 2-(4-(6-((9-Cyclopentyl-9H-pyrido[4′,3′:4,5]pyrrolo[2,3-d]pyrimidin-2-yl)amino)-3-pyridinyl)-1-piperazinyl)ethanol]  0.0044 µM
13. OC[C@@H]1CN(c2ccc(Nc3ncc4c5ccnc(F)c5n(C5CCCC5)c4n3)nc2)CCN1 [Example 199, ((2S)-4-(6-((9-cyclopentyl-8-fluoro-9H-pyrido[4′,3′:4,5]pyrrolo[2,3-d]pyrimidin-2-yl)amino)-3-pyridinyl)-2-piperazinyl)methanol]  0.0045 µM
14. OCCN1CCN(c2ccc(Nc3ncc4c5ccnc(Cl)c5n(C5CCCC5)c4n3)nc2)CC1 [Example 166, 2-(4-(6-((8-Chloro-9-cyclopentyl-9H-pyrido[4′,3′:4,5]pyrrolo[2,3-d]pyrimidin-2-yl)amino)-3-pyridinyl)-1-piperazinyl)ethanol]  0.0055 µM
15. CC(C)(O)CN1CCN(c2ccc(Nc3ncc4c5ccnc(F)c5n(C5CCCC5)c4n3)nc2)CC1 [Example 172, 1-(4-(6-((9-Cyclopentyl-8-fluoro-9H-pyrido[4′,3′:4,5]pyrrolo[2,3-d]pyrimidin-2-yl)amino)-3-pyridinyl)-1-piperazinyl)-2-methyl-2-propanol]  0.0056 µM
16. N[C@@H]1CCN(c2cnc(Nc3ncc4c5ccncc5n(C5CCCC5)c4n3)cn2)C1 [Example 90]  0.0056 µM
17. c1cc2c3cnc(Nc4ccc(N5CCC(N6CCCC6)CC5)cn4)nc3n(C3CCCC3)c2cn1 [Example 76]  0.0059 µM
18. c1cc2c3cnc(Nc4ccc(N[C@H]5CCNC5)nn4)nc3n(C3CCCC3)c2cn1 [Example 92]  0.0088 µM
19. COc1nccc2c3cnc(Nc4ccc(N5CCNCC5)cn4)nc3n(C3CCC(C)(C)CC3)c12 [Example 207, 9-(4,4-dimethylcyclohexyl)-8-methoxy-N-(5-(1-piperazinyl)-2-pyridinyl)-9H-pyrido[4′,3′:4,5]pyrrolo[2,3-d]pyrimidin-2-amine]  0.01 µM
20. O=C(Cc1ccc(Nc2ncc3c4ccncc4n(C4CCCC4)c3n2)nc1)N1CCOCC1 [Example 244, 9-cyclopentyl-N-(5-(2-(4-morpholinyl)-2-oxoethyl)-2-pyridinyl)-9H-pyrido[4′,3′:4,5]pyrrolo[2,3-d]pyrimidin-2-amine]  0.011 µM
21. CCN(CC)C1CCN(c2ccc(Nc3ncc4c5ccnnc5n(C5CCCC5)c4n3)nc2)CC1 [Example 281, 9-Cyclopentyl-N-(5-(4-(diethylamino)-1-piperidinyl)-2-pyridinyl)-9H-pyrimido[5′,4′:4,5]pyrrolo[2,3-c]pyridazin-7-amine]  0.011 µM
22. COc1nccc2c3cnc(Nc4ccc(N5CCC(N6CCCC6)CC5)cn4)nc3n(C3CCC(C)(C)CC3)c12 [Example 209, 9-(4,4-dimethylcyclohexyl)-8-methoxy-N-(5-(4-(1-pyrrolidinyl)-1-piperidinyl)-2-pyridinyl)-9H-pyrido[4′,3′:4,5]pyrrolo[2,3-d]pyrimidin-2-amine]  0.011 µM
23. c1cc2c3cnc(Nc4cnc(NC5CCNCC5)cn4)nc3n(C3CCCC3)c2cn1 [Example 83]  0.012 µM
24. CN(CCO)C1CCN(c2ccc(Nc3ncc4c5ccnc(F)c5n(C5CCCC5)c4n3)nc2)CC1 [Example 195, 2-((1-(6-((9-Cyclopentyl-8-fluoro-9H-pyrido[4′,3′:4,5]pyrrolo[2,3-d]pyrimidin-2-yl)amino)-3-pyridinyl)-4-piperidinyl)(methyl)amino)ethanol]  0.013 µM
25. C[C@H](O)Cn1c2cnccc2c2cnc(Nc3ccc(N4CCN[C@@H](C)C4)nn3)nc21 [Example 412]  0.014 µM
26. CCN(CC)C1CCN(c2ccc(Nc3ncc4c5ccnc(F)c5n(C5CCCC5)c4n3)nn2)CC1 [Example 277, 9-Cyclopentyl-N-(6-(4-(diethylamino)-1-piperidinyl)-3-pyridazinyl)-8-fluoro-9H-pyrido[4′,3′:4,5]pyrrolo[2,3-d]pyrimidin-2-amine]  0.018 µM
27. CC1(C)CN(c2ccc(Nc3ncc4c5cc[nH]c(=O)c5n(C5CCCC5)c4n3)nn2)CCN1 [Example 130]  0.02 µM
28. CN(C)C1CCN(c2cnc(Nc3ncc4c5ccncc5n(C5CCCC5)c4n3)cn2)CC1 [Example 85]  0.02 µM
29. CC[C@H](C)n1c2cnccc2c2cnc(Nc3ccc(N4CC[C@@H](O)C4)nn3)nc21 [Example 337]  0.022 µM
30. CNC1CCN(c2ccc(Nc3ncc4c5ccncc5n([C@H](C)CO)c4n3)nn2)CC1 [Example 386]  0.053 µM
31. N#CCC1CCN(c2ccc(Nc3ncc4c5ccnc(F)c5n(C5CCCC5)c4n3)nc2)CC1 [Example 173, (1-(6-((9-Cyclopentyl-8-fluoro-9H-pyrido[4′,3′:4,5]pyrrolo[2,3-d]pyrimidin-2-yl)amino)-3-pyridinyl)-4-piperidinyl)acetonitrile]  0.056 µM
32. CC1CCN(c2ccc(Nc3ncc4c5ccncc5n(C5CCCC5)c4n3)nc2)C1 (stereo not drawn) [Example 74]  0.056 µM
33. C[C@H](O)Cn1c2cnccc2c2cnc(Nc3ccc(N4CCC(N(C)C)CC4)cn3)nc21 [Example 422]  0.069 µM
34. C[C@H]1CN(c2ccc(Nc3ncc4c5ccncc5n([C@H]5CCC[C@H]5O)c4n3)nc2)CCN1 [Example 359]  0.071 µM
35. C[C@H](O)Cn1c2cnccc2c2cnc(Nc3ccc(N4CC[C@@H](O)C4)cn3)nc21 [Example 424]  0.072 µM
36. C[C@@H](CO)n1c2cnccc2c2cnc(Nc3ccc(N4CC[C@@H](O)C4)nn3)nc21 [Example 374]  0.086 µM
37. C[C@H]1CN(c2ccc(Nc3ncc4c5ccncc5n([C@@H]5CCOC5)c4n3)nn2)CCN1 [Example 429]  0.092 µM
38. C[C@H](CO)n1c2cnccc2c2cnc(Nc3ccc(N4CC[C@@H](O)C4)cn3)nc21 [Example 382]  0.152 µM
39. C[C@H](CO)n1c2cnccc2c2cnc(Nc3ccc(N4CC[C@@H](O)C4)nn3)nc21 [Example 389]  0.166 µM
40. C[C@H]1CN(c2ccc(Nc3ncc4c5ccncc5n([C@H]5CCC[C@H]5O)c4n3)nn2)CCN1 [Example 363]  0.211 µM
41. C[C@@H](O)Cn1c2cnccc2c2cnc(Nc3ccc(N4CCNCC4)nn3)nc21 [Example 415]  0.259 µM
42. C[C@@H](O)Cn1c2cnccc2c2cnc(Nc3ccc(N4CCC(N(C)C)CC4)nn3)nc21 [Example 416]  0.271 µM
43. CNC1CCN(c2ccc(Nc3ncc4c5ccncc5n([C@H]5CCC[C@H]5O)c4n3)nc2)CC1 [Example 393]  0.3 µM
44. c1cc2c3cnc(Nc4nsc(N5CCNCC5)n4)nc3n(C3CCCC3)c2cn1 [Example 132]  0.302 µM
45. O[C@H]1CCC[C@@H]1n1c2cnccc2c2cnc(Nc3ccc(N4CCNCC4)cn3)nc21 [Example 398]  0.33 µM
46. CC[C@H](C)n1c2cnccc2c2cnc(Nc3ccc(N4CCNCC4)nn3)nc21 [Example 331]  0.39 µM
47. COCCn1c2cnccc2c2cnc(Nc3ccc(N4CCC(N(C)C)CC4)nn3)nc21 [Example 315]  1.38 µM
48. C[C@H](CO)n1c2cnccc2c2cnc(Nc3ccc(N4CCN[C@@H](C)C4)cn3)nc21 [Example 381]  2 µM
